Entries after “also recorded” stand apart in the source; their conditions may differ.
Columns and labels:
HDAC [1] = details: formed from FK228 by dithiothreitol reduction in vitro; cited from earlier work
bone marrow blasts = experiment: Phase II study of depsipeptide in relapsed or refractory AML: anti-leukemic response; assay type: in vivo, human
From the text: (§1) Eighteen patients (median age=60 years, age range=25-77 years) with relapsed or refractory AML were enrolled in a multicenter Phase II study of depsipeptide for the treatment of AML. Patients were divided into two groups upon entry into the study: Group A (n=14), which included patients without specific chromosomal abnormalities correlated with recruitment of histone deacetylases; and Group B (n=4), which included patients with chromosomal aberrations associated with recruitment of histone deacetylases, such as t(8;21), inv 16, or t(15; 17).
(§2) FK228 (Fujisawa, Osaka, Japan) was administered intravenously over four hours at a dose of 13.3 mg/m^2/d on days 1, 8, and 15 of a 28-day cycle. Peripheral blood mononuclear cells were obtained prior to (hour 0) and 4 hours (hour 4) and 24 hours (hour 24) after dosing on days 1 and 8 and used to evaluate histone acetylation by flow cytometry and gene re-expression by REAL-time RT-PCR. Target genes of interest include MDR1, a target of HDI-mediated upregulation, and p15^INK4B (P15), a target of DNA hypermethylation in AML.

H3 acetylation = experiment: Histone acetylation by flow cytometry in peripheral blood mononuclear cells; assay type: in vivo, human
Description: as §2

MDR1 = experiment: Gene re-expression by REAL-time RT-PCR in peripheral blood mononuclear cells (MDR1); assay type: in vivo, human; details: hr 4 on days 1 and 8; normalized to ABL; p=0.04
Description: as §2
(§3) MDR1 and p15 copy numbers were expressed as a normalized quotient of MDR1 and p15, respectively, to the housekeeping gene ABL.

p15INK4B (P15) = experiment: Gene re-expression by REAL-time RT-PCR in peripheral blood mononuclear cells (p15); assay type: in vivo, human; details: normalized to ABL; p-0.01
Description: as §2, §3

[2] = Tolerability in Phase II AML study; assay type: in vivo, human; details: AML patients, 13.3 mg/m2/d iv days 1, 8, 15 of 28-day cycle
From the text: as §1, §2

HDAC [3] = details: cited from earlier work

Row | Compound | HDAC inhibition (HDAC [1]) | response of patient having a t(4;21) translocation (bone marrow blasts; 13.3 mg/m2/d iv days 1, 8, 15 of 28-day cycle) | objective evidence of response (complete or partial remission) or other anti-leukemic activity (bone marrow blasts; Group A (n=14), patients without chromosomal abnormalities correlated with HDAC recruitment, 13.3 mg/m2/d iv over 4 h, days 1, 8, 15 of 28-day cycle) | patients exhibiting marked reduction of bone marrow blasts (bone marrow blasts; Group B (n=4), chromosomal aberrations associated with HDAC recruitment, after one cycle, 13.3 mg/m2/d iv) | time to increase in bone marrow blasts following cessation of therapy (bone marrow blasts; both responding Group B patients, antileukemic effect short-lived) | hematopoiesis in responding patients (bone marrow blasts; responders of Group B, following the second cycle of treatment, 13.3 mg/m2/d iv) | bone marrow blast percentage in responding patients (bone marrow blasts; responders with AML1 translocations (t(8;21), t(4;21)), normocellular marrow after one cycle, 13.3 mg/m2/d iv) | patients exhibiting increase H3 acetylation (H3 acetylation; 4 of 14 patients) | patients exhibiting an increase in H3 acetylation (H3 acetylation; Group B cohort (3 of 4), at 4 and/or 24 hours after dosing) | overall mean increase in MDR1 expression (MDR1) | mean increase in p15 expression (p15INK4B (P15)) | most common adverse effects [2] | tolerability [2] | HDAC inhibition in vivo (HDAC [3])
1 | C/C=C1\NC(=O)[C@@H](CS)NC(=O)[C@@H](C(C)C)NC(=O)C[C@@H](/C=C/CCS)OC(=O)[C@H](C(C)C)NC1=O [FR135313] | capable of inhibiting HDAC | – | – | – | – | – | – | – | – | – | – | – | – | –
2 | C/C=C1\NC(=O)[C@H]2CSSCC/C=C/[C@H](CC(=O)N[C@H](C(C)C)C(=O)N2)OC(=O)[C@H](C(C)C)NC1=O [FK228] | – | responded to the treatment | No objective evidence of response | 50% | ≤ 30 days | return to substantially normal hematopoiesis; also recorded: recovery of near-normal hematopoiesis | < 5% | 28% | 75% | 41% | 91% | grade ½ nausea, vomiting, and fatigue | well tolerated | strongly inhibits HDAC

From patent publication US20060106049A1, “Histone deacetylase inhibitors and methods of use” (The University of chicago, priority 2004, published 2006)
